Data: ChEMBL document CHEMBL5370549, “Optimization and evaluation of pyridinyl vinyl sulfones as Nrf2 activator for the antioxidant and anti-inflammatory effects” (Eur J Med Chem, 2023)
Counter-ions that a name gives are not always drawn.

Experiments:
[1] = target: T1, Nuclear factor erythroid 2-related factor 2 (Homo sapiens, UniProt Q16236); assay: Activation of Nrf2 in human U2OS cells co-expressing Keap1 assessed as induction of Nrf2 nuclear translocation incubated for 6 hrs by PathHunter chemiluminescence based analysis; type: cell-based
T1 sequence (Q16236 whole entry): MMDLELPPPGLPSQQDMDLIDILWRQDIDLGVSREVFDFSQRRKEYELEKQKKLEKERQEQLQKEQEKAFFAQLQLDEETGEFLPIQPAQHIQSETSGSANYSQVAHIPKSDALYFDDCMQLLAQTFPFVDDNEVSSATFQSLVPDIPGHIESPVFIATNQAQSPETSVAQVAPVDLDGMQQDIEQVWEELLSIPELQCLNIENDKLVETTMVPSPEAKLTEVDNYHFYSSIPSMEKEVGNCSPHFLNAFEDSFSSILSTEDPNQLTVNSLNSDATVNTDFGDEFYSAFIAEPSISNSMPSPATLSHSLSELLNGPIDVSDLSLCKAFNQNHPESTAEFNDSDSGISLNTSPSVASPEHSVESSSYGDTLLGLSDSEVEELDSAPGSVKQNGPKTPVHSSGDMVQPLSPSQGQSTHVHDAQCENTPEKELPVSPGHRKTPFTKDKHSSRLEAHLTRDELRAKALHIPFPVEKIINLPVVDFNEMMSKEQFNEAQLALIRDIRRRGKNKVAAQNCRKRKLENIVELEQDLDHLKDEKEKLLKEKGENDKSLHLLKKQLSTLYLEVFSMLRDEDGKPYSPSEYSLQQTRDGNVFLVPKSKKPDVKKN

CYP2C9 = CYP2C9 (Homo sapiens, UniProt P11712); assay: Inhibition of CYP2C9 (unknown origin) assessed as enzyme activity at 10 uM relative to control; type: ADME; parameters: scale not given: the % may be the effect or the level left; settings: read-out: Activity
Chain of CYP2C9 (P11712 whole entry): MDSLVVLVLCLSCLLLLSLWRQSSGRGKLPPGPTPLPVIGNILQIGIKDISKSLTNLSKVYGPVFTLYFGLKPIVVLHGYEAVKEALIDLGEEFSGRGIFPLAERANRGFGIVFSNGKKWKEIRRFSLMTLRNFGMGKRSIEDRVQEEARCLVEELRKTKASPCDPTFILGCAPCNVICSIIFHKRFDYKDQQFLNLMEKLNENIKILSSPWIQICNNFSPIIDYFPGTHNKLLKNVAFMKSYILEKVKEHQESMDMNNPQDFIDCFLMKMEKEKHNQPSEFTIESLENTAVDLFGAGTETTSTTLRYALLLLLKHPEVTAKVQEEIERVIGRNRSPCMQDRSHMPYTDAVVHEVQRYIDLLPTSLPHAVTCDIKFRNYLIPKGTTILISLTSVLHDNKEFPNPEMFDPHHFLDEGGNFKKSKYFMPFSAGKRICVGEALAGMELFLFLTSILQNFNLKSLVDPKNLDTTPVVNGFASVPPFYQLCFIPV

CYP1A2 = target: T2, CYP1A2 (Homo sapiens, UniProt P05177); assay: Inhibition of CYP1A2 (unknown origin) assessed as enzyme activity at 10 uM relative to control; type: ADME; parameters: scale not given: the % may be the effect or the level left; settings: read-out: Activity
T2 sequence (P05177 whole entry): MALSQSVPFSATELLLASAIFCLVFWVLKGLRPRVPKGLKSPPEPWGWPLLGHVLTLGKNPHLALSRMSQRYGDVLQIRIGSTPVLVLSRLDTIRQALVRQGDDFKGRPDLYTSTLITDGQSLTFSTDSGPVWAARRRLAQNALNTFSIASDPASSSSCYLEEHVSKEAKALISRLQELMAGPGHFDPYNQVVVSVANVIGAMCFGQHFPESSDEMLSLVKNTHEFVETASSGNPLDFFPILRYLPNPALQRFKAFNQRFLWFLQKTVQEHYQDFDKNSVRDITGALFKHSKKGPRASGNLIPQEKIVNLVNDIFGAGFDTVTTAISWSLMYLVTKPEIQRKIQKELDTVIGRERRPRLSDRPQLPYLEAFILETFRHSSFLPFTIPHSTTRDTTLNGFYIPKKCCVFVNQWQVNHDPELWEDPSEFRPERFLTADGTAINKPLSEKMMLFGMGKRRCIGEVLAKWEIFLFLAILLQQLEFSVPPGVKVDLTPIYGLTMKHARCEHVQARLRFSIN

CYP2C19 = CYP2C19 (Homo sapiens, UniProt P33261); assay: Inhibition of CYP2C19 (unknown origin) assessed as enzyme activity at 10 uM relative to control; type: ADME; parameters: scale not given: the % may be the effect or the level left; settings: read-out: Activity
Chain of CYP2C19 (P33261 whole entry): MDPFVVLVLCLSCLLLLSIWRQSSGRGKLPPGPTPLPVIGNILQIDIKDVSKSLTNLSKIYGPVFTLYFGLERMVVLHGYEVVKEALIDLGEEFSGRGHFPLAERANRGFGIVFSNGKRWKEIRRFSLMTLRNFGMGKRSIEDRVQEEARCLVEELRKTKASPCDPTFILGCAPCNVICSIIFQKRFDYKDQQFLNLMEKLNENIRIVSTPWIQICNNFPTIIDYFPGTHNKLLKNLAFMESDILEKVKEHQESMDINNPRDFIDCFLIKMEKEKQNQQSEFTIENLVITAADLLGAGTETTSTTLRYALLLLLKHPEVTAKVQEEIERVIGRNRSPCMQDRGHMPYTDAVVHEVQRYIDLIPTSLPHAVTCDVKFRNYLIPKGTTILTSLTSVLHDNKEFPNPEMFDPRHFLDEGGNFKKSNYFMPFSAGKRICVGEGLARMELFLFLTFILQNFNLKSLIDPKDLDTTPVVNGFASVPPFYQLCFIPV

CYP3A4 = CYP3A4 (Homo sapiens, UniProt P08684); assay: Inhibition of CYP3A4 (unknown origin) assessed as enzyme activity at 10 uM relative to control; type: ADME; parameters: scale not given: the % may be the effect or the level left; settings: read-out: Activity
Chain of CYP3A4 (P08684 whole entry): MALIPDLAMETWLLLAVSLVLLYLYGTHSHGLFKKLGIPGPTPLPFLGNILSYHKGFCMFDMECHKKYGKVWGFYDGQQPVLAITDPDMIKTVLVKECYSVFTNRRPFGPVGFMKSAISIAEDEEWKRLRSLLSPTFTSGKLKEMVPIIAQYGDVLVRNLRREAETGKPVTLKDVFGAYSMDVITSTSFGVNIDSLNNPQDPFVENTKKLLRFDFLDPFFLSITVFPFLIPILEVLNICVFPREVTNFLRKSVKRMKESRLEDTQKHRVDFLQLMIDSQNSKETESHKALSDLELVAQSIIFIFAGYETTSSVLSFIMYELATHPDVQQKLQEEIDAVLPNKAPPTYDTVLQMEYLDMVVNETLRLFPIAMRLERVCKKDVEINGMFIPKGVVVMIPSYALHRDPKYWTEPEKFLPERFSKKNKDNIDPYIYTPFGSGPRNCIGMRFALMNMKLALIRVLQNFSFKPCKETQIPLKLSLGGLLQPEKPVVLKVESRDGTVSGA

[2] = Metabolic stability of the compound in human liver microsomes assessed as parent compound remaining measured after 30 mins; type: ADME, Microsome; settings: read-out: Stability
[3] = Metabolic stability of the compound in rat plasma assessed as parent compound remaining measured after 30 mins; type: ADME, cell-free; settings: read-out: Stability
CYP2D6 = CYP2D6 (Homo sapiens, UniProt P10635); assay: Inhibition of CYP2D6 (unknown origin) assessed as enzyme activity at 10 uM relative to control; type: ADME; parameters: scale not given: the % may be the effect or the level left; settings: read-out: Activity
Chain of CYP2D6 (P10635 whole entry): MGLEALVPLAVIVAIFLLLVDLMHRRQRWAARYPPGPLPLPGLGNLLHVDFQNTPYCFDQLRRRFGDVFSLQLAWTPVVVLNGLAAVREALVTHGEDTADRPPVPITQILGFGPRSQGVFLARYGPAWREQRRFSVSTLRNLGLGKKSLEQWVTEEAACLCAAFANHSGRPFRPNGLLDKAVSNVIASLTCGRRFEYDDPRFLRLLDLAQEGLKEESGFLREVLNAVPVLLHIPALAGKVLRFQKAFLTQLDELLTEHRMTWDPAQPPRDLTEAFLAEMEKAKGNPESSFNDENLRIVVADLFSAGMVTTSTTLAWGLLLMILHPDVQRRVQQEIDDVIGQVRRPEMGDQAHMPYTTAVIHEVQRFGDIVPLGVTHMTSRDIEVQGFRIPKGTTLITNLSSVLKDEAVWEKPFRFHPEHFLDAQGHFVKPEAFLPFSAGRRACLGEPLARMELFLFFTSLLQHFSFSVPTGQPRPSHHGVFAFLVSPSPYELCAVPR

[4] = Metabolic stability of the compound in mouse liver microsomes assessed as parent compound remaining measured after 30 mins; type: ADME, Microsome; settings: read-out: Stability
[5] = Metabolic stability of the compound in human plasma assessed as parent compound remaining measured after 30 mins; type: ADME, cell-free; settings: read-out: Stability

Row | Structure (SMILES) | EC50 [1] | activity at 10 µM (CYP2C9) | activity at 10 µM (CYP1A2) | activity at 10 µM (CYP2C19) | activity at 10 µM (CYP3A4) | remaining at 0.5 h [2] | remaining at 0.5 h [3] | activity at 10 µM (CYP2D6) | remaining at 0.5 h [4] | remaining at 0.5 h [5]
1 | COc1cccc(S(=O)(=O)/C=C/c2ccccc2C(F)(F)F)n1 | 316 nM | 71% | 4.9% | 13.2% | 30.6% | 19.3% | 91.8% | 91.7% | 6% | 98.4%
2 | COc1cccc(S(=O)(=O)/C=C/c2ncccc2Cl)n1 | 93 nM | > 99% | 23.1% | 12.5% | 36.8% | 49.4% | 83% | 96% | 9.6% | > 99%
3 | COc1cccnc1S(=O)(=O)/C=C/c1ncccc1C(F)(F)F | 107 nM | 69.7% | 72.6% | 60.5% | 36.4% | 87.8% | 84.1% | > 99% | 64.7% | 94%
4 | COc1ncccc1S(=O)(=O)/C=C/c1ccccc1Cl | 189 nM | > 99% | 10.7% | 7.1% | 48.5% | 75.2% | 98.9% | 99.5% | 48.1% | > 99%
5 | COc1ccnc(S(=O)(=O)/C=C/c2ccncc2Cl)c1 | 32 nM | > 99% | 29.9% | 22.4% | 70.2% | 77.3% | 43.4% | 69.8% | 50.4% | 83.6%
6 | COc1ccc(S(=O)(=O)/C=C/c2ccccc2C(F)(F)F)nc1 | 245 nM | > 99% | 27.8% | 3.7% | 58% | 31.7% | 94.7% | 100% | 2.7% | 99%
7 | COc1ccc(S(=O)(=O)/C=C/c2ncccc2C(F)(F)F)nc1 | 275 nM | > 99% | 61.1% | 21.7% | 88.9% | 57.2% | 91.9% | > 99% | 60.1% | 96.2%
8 | COc1ccnc([S+]([O-])/C=C/c2ccccc2C(F)(F)F)c1 (stereo unspecified) |  | 81.9% | 34.3% | 6.4% | 45.1% | 40.6% | 92.2% | 85.7% | 1.4% | 96%
9 | COc1ncccc1S(=O)(=O)/C=C/c1ncccc1Cl | 75 nM | > 99% | 31% | 15% | 53% | 77.6% | 91.3% | > 99% | 59.2% | 98.5%
10 | COc1ccnc(S(=O)(=O)/C=C/c2ccnc(Cl)c2)c1 | 400 nM | > 99% | 89.6% | 24.3% | > 99% | 88.4% | 59% | > 99% | 64.5% | 93.1%
11 | COc1ccnc(S(=O)(=O)/C=C/c2ccc(Cl)nc2)c1 | 914 nM | 91.7% | 83% | 17.9% | > 99% | 65.8% | 97.3% | > 99% | 82.1% | 98.6%
12 | COc1ncccc1S(=O)(=O)/C=C/c1ccccc1C(F)(F)F | 749 nM | > 99% | 12.4% | 16.2% | 51.7% | 75.2% | 89.3% | 94.4% | 48.1% | 91.3%
13 | COc1cccc(S(=O)(=O)/C=C/c2ccccc2Cl)n1 | 231 nM | > 99% | 6.73% | 7.7% | 28% | 13.8% | 98.9% | 97.6% | 4.4% | > 99%
14 | COc1ccncc1S(=O)(=O)/C=C/c1ccccc1C(F)(F)F | 248 nM | > 99% | 12.1% | 23.5% | 12% | 82.9% |  | 85.1% | 71.9% | 
15 | COC(=O)/C=C/C(=O)O [MONOMETHYL FUMARATE] | > 10000 nM |  |  |  |  |  |  |  |  | 
16 | COc1cccnc1/C=C/S(=O)(=O)c1ncccc1OC | 1870 nM | 66.5% | 82.1% | > 99% | > 99% | > 99% |  | 91.9% | > 99% | 
17 | COc1ccnc(S(=O)(=O)/C=C/c2ncccc2Cl)c1 | 30 nM | 76.1% | 69.9% | 27.6% | 70.9% | 61.7% | 65.9% | 100% | 36.8% | 95%
18 | COc1ccnc(S(=O)(=O)/C=C/c2cccc(Cl)c2)c1 | 824 nM | > 99% | 63.4% | 7% | 38.2% | 54.6% | 94.7% | 97.2% | 8.7% | > 99%
19 | COc1ccc([S+]([O-])/C=C/c2ccccc2C(F)(F)F)nc1 (stereo unspecified) |  | > 99% | 48.8% | 2.5% | 78% | 28% | 89% | 94% | 1% | > 99%
20 | COc1cccnc1C(=O)/C=C/c1ccccc1C(F)(F)F |  | > 99% | 3.7% | 8.2% | 27.4% | 1% | 94.3% | 91.3% | 1.4% | 96.5%
21 | COc1cccc([S+]([O-])/C=C/c2ccccc2C(F)(F)F)n1 (stereo unspecified) |  | 78.3% | 4.9% | 5.5% | 38.3% | 6.3% | 89.8% | 72.6% | 1.1% | 82.4%
22 | COc1ccncc1S(=O)(=O)/C=C/c1ncccc1Cl | 51 nM | > 99% | 79.5% | 42.9% | 15.7% | 91.4% |  | 88.7% | 77.1% | 
23 | COc1cccnc1[S+]([O-])/C=C/c1ccccc1C(F)(F)F (stereo unspecified) |  | 56.3% | 32.8% | 32.9% | 36.9% | 46.3% | > 99% | 95.9% | 5% | > 99%
24 | COC(=O)/C=C/C(=O)OC [DIMETHYL FUMARATE] | 5110 nM |  |  |  |  |  |  |  |  | 
